In series [1] the test system is CYP3A4. Also on record: method as in PMID 16205037, PMID 30477963. As to conditions: cited from earlier work.
Series [2] is described as follows: DDI study: pharmacokinetics of zanubrutinib in rats alone or with fluconazole / isavuconazole. As to conditions: for AUC(0-inf) / AUC(0-t) / Cmax / Tmax / half-life / CL/F / MRT last / MRT inf / Vd/F: rat, plasma, po, zanubrutinib 30 mg/kg gavage, n = 6, mean ± SD; for CL/F: read-out: CLz/F (converted); for MRT last: read-out: MRT(0−t); for MRT inf: read-out: MRT(0−∞); for Vd/F: read-out: Vz/F; for time to peak: in h (unit assumed); for peak plasma concentration: in ng/mL; for area under the curve: in µg·h/L. The series is classed as in vivo, Sprague–Dawley (SD) rats. Here is the method: The separation procedures were processed using a Shim-pack velox C18 column (2.1 × 50 mm, 2.7 μm) at 40 degrees Celsius. The mobile phases were 0.1% formic acid-water and methanol. The gradient elution mode (each injection = 3 min) was applied as follows: the first 0-0.5 min was maintained at 10% methanol, followed by linearly increasing to 80% methanol (0.5–0.8 min) and keeping 80% methanol for 0.8–1.5 min. […] At the stage of the analysis process, the sample injection volume and flow rate were set as 2 µL and 0.4 mL/min, respectively.
Triple quadrupole mass spectrometry (Shimadzu Corp., Tokyo, Japan) was utilized for sample detection. The parameters for this procedure were set as follows: the detector voltage, heating block temperature, flow of atomizing gas, and drying gas were set as 4.5 kV, 400 °C, 3 L/min and 5 L/min, respectively. Multiple reaction monitoring (MRM) mode was performed to detect the precursor and product ions of the IS and analyte. The first and second signal strength product ions were applied to quantitation and qualification, respectively, to ensure the specificity of the detection. In addition, the retention times of the IS and analyte were also considered to further improve the detection specificity.
Eighteen SD rats were randomly split into three groups (Groups A-C). […] The same dose (0.5% CMC-Na) was administered to Group A (control group). After half an hour, each rat was treated with 30 mg/kg zanubrutinib. Thereafter, rat blood samples (0.3 mL) from the caudal vein at a series of time points (0.083, 0.5, 1, 2, 3, 4, 5, 6, 8, and 12 h) were collected in heparin tubes. The blood samples were centrifuged at 13,000 × g for 10 min at 4 °C, followed by separation of plasma and storage at -80 °C.
Prior to the experiment, the − 80 °C stored rat plasma samples were placed at room temperature for thawing. At the protein precipitation stage, 40 µL IS, 200 µL acetonitrile, and 100 µL plasma were collectively added to a 1.5 mL centrifuge tube, vortexed to mix thoroughly, and centrifuged at 12,000 × g for 10 min. Afterwards, 100 µL supernatant was transferred to a centrifuge tube and gently mixed with 100 µL ultrapure water for UHPLC–MS/MS analysis.

Series [3] has as its system IL-2-induced kinase (ITK). Also on record: method as in PMID 31171645. As to conditions: compared to ibrutinib; cited from earlier work.
In series [4] the test system is CYP3A4. On the set-up: method as in PMID 34252374. As to conditions: in vitro experiments; to phenoxy phenyl hydroxylation metabolites; cited from earlier work.
In a further series the test system is BTK. On the set-up: method as in PMID 31340982. As to conditions: peripheral blood mononuclear cells (PBMCs) and peripheral lymph nodes in patients with B-cell lymphoma; cited from earlier work.
Series [5] is described as follows: Stability of zanubrutinib in rat plasma under different storage conditions. It counts as in vitro ADME. As to conditions: for Stability in rat plasma, RE(%): n = 6. Here is the method: Under a series of storage conditions, each concentration of rat plasma QC samples (2, 40 and 800 ng/mL) was evaluated in 6 replicates to explore the stability of the method. This experiment determines the stabilities of the QC samples during analyses and different storage conditions. […] The testing results with RSD% (< 15%) and RE% (± 15%) were considered stable.

On the set-up of series [6]: method as in PMID 31875923. The settings on record: healthy volunteers, combined with itraconazole (CYP3A4 inhibitor); cited from earlier work.
On the set-up of series [7]: method as in PMID 31340982. The settings on record: cited from earlier work.
Setting [8] is: Sprague-Dawley, 30 mg/kg, rats, Group A: the control group (0.5% CMC-Na).
Setting [9] is: Sprague-Dawley, 30 mg/kg, rats, Group B: 20 mg/kg isavuconazole.
The mark [10] stands for this setting: Sprague-Dawley, 30 mg/kg, rats, Group C: 20 mg/kg fluconazole.
Setting [11] is: rats, zanubrutinib (30 mg/kg) alone.
[12] abbreviates: rats, zanubrutinib (30 mg/kg) coadministered with fluconazole (20 mg/kg).
[13] abbreviates: rats, zanubrutinib (30 mg/kg) coadministered with isavuconazole (20 mg/kg).
Setting [14] is: single administration of 320 mg.

SMILES strings stand for the structures. Like-named read-outs stand apart in the source and are kept apart here.

Broadly, the AUC(0-inf) is total exposure, with the tail of the curve extrapolated. Read a low AUC(0-inf) as less exposure. In general, AUC(0-t) refers to exposure summed from dosing to a finite time, without extrapolation to infinity. Lower therefore signals less exposure. What is called Cmax is the maximum level reached in the sampled fluid or tissue. As usually defined, the Tmax is the time from dosing to the highest level. For orientation: half-life means the time in which the quantity being followed falls by half. Read a low half-life as rapid decline.

Consider `OC(Cn1cncn1)(Cn1cncn1)c1ccc(F)cc1F` [fluconazole], for which the CYP3A4 inhibition result with CYP3A4 [1] is listed as “CYP3A4 enzyme inhibitors”.

Regarding `C[C@@H](c1nc(-c2ccc(C#N)cc2)cs1)[C@](O)(Cn1cncn1)c1cc(F)ccc1F` [isavuconazole], the CYP3A4 inhibition result with CYP3A4 [1] is recorded as “CYP3A4 enzyme inhibitors”. The “inhibitory effect on the metabolism of zanubrutinib” value in series [2] (rats, 20 mg/kg antifungal by gavage half an hour before 30 mg/kg zanubrutinib) is listed as “obvious inhibitory effect”.

Consider `C=CC(=O)N1CCC([C@@H]2CCNc3c(C(N)=O)c(-c4ccc(Oc5ccccc5)cc4)nn32)CC1` [zanubrutinib], for which, in series [3], the “times lower at inhibiting IL-2-induced kinase (ITK) than ibrutinib” value is “more than 20 times”. Further, the “enzyme primarily metabolizing zanubrutinib” value in the series with CYP3A4 [4] is given as “CYP3A4”. In addition, in the series with BTK, the “efficacy of BTK inhibition” value is recorded as ~100%. Moreover, the “Stability in rat plasma, RE(%)” value in series [5] (4 °C (24 h), 2 ng/mL) amounted to 1.3%; in series [5] (4 °C (24 h), 40 ng/mL), 1.4%; in series [5] (4 °C (24 h), 800 ng/mL), 1.0%; in series [5] (-80 °C (long-term), 2 ng/mL), 2.5%; in series [5] (-80 °C (long-term), 40 ng/mL), 1.5%; in series [5] (-80 °C (long-term), 800 ng/mL), 4.0%. Besides, the “Stability in rat plasma, RE(%)” value in series [5] (Room temperature (4 h), 2 ng/mL) is on record as -0.2%; in series [5] (Room temperature (4 h), 40 ng/mL), -1.4%; in series [5] (Room temperature (4 h), 800 ng/mL), -2.3%; in series [5] (Three freeze‒thaw, 2 ng/mL), -1.8%; in series [5] (Three freeze‒thaw, 40 ng/mL), 2.6%; in series [5] (Three freeze‒thaw, 800 ng/mL), -0.4%. In addition, the “stability in plasma under the assessed storage conditions” value in series [5] (room temperature, 4 degrees Celsius refrigeration, freeze thawing, cryopreservation for long-term) is “stable”. Besides, the “AUC increased to (combined with itraconazole)” value in series [6] is 143%. In series [6], the “Cmax increased to (combined with itraconazole)” value is given as 154%. In addition, in series [2] (Sprague-Dawley, 30 mg/kg, a rat plasma sample obtained 1 h after oral administration of zanubrutinib), the concentration at 1 h is 230 ng/mL. The figures for the AUC(0-inf) in series [2] (setting [8]), in series [2] (setting [9]) and in series [2] (setting [10]) were 1090 ± 44.2 ng·h/mL, 1270 ± 78 ng·h/mL and 1730 ± 218 ng·h/mL, respectively. Also, the AUC(0-t) stood at 1080 ± 43.8 ng·h/mL in series [2] (setting [8]), 1270 ng·h/mL in series [2] (setting [9]) and 1720 ± 219 ng·h/mL in series [2] (setting [10]). Moreover, the peak concentration (Cmax) in series [2] (setting [8]) worked out at 332 ± 52.8 ng/mL; in series [2] (setting [9]), 396 ± 37.2 ng/mL; in series [2] (setting [10]), 495 ± 131 ng/mL. For the same compound, the Tmax in series [2] (setting [8]) was 1.83 ± 0.41 h; in series [2] (setting [9]) it was 2 h; in series [2] (setting [10]), 2.17 ± 0.41 h. For the same compound, the half-life was 80.4 ± 6.6 min in series [2] (setting [8]), 85.2 ± 33.6 min in series [2] (setting [9]) and 82.2 ± 9.6 min in series [2] (setting [10]). Besides, the CL/F in series [2] (setting [8]) is 461 mL/min/kg; in series [2] (setting [9]) it was 394 mL/min/kg; in series [2] (setting [10]), 293 mL/min/kg. In addition, the MRT last in series [2] (setting [8]) was determined as 2.71 ± 0.1 h; in series [2] (setting [9]), 2.76 ± 0.07 h; in series [2] (setting [10]), 2.95 ± 0.14 h. For the same compound, the results for the MRT inf in series [2] (setting [8]), in series [2] (setting [9]) and in series [2] (setting [10]) were 2.76 ± 0.09 h, 2.82 ± 0.09 h and 3 ± 0.14 h, respectively. Moreover, the results for the Vd/F in series [2] (setting [8]), in series [2] (setting [9]) and in series [2] (setting [10]) were 53.2 ± 3.64 L/kg, 49 ± 21.1 L/kg and 34.8 ± 6.57 L/kg, respectively. Moreover, the time to peak is recorded as 1.83 ± 0.41 in series [2] (setting [11]), 2.17 ± 0.41 in series [2] (setting [12]) and 2.00 ± 0.00 in series [2] (setting [13]). Further, the peak plasma concentration in series [2] (setting [11]) was 332.00 ± 52.79; in series [2] (setting [12]) it was 494.51 ± 130.68; in series [2] (setting [13]), 396.05 ± 37.19. In addition, the entries for the “area under the curve” value in series [2] (setting [11]), in series [2] (setting [12]) and in series [2] (setting [13]) were 1081.67 ± 43.81, 1721.61 ± 219.36 and 1267.55 ± 79.35, respectively. Further, in series [7] (patients with malignant lymphoma, oral administration), the “time of peak concentration (Tmax)” value is reported as “approximately 2 h”. The “mean half-life (t1/2)” value in series [7] (setting [14]) is “approximately 4 h”. Also, the “mean peak concentration (Cmax)” value in series [7] (setting [14]) was 658 ng/mL.

The values above are taken from paper PMC10469817, “A novel UHPLC‒MS/MS method for quantitative analysis of zanubrutinib in rat plasma: application to an in vivo interaction study between zanubrutinib and triazole antifungal” (BMC Chemistry, 2023).
